Experimental data as given in ChEMBL document CHEMBL1201862, “PubChem BioAssay data set” (2004).
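A five-concentration, 48-hour dose response in 96-well plates underlies each endpoint, interpolated linearly between surrounding concentrations. The concentration for 50% growth inhibition is given as GI50.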 Calls of active or inactive are those of the source. Rule as the data show it: active = GI50 up to about 1.1 µM and inactive = higher.

Experiments:
Assay in all cases: NCI-60 cell line screen, 48 h
COLO 205 = test system: COLO 205
SK-OV-3 = test system: SK-OV-3
NCI-H522 = test system: NCI-H522
U-251 = test system: U-251
SW-620 = test system: SW-620
SK-MEL-28 = test system: SK-MEL-28
K562 = test system: K562
OVCAR-8 = test system: OVCAR-8
UO-31 = test system: UO-31
KM12 = test system: KM12
HCT-116 = test system: HCT-116
HCC 2998 = test system: HCC 2998
M14 = test system: M14
MDA-MB-231 = test system: MDA-MB-231
OVCAR-4 = test system: OVCAR-4
HOP-92 = test system: HOP-92
CCRF-CEM = test system: CCRF-CEM
NCI-H460 = test system: NCI-H460
LOX IMVI = test system: LOX IMVI
Hs-578T = test system: Hs-578T
SNB-19 = test system: SNB-19
SR = test system: SR
MOLT-4 = test system: MOLT-4
SF-268 = test system: SF-268
NCI-H226 = test system: NCI-H226
MDA-MB-435 = test system: MDA-MB-435
NCI/ADR-RES = test system: NCI/ADR-RES
DU-145 = test system: DU-145
HL-60 = test system: HL-60
HT-29 = test system: HT-29
A498 = test system: A498
NCI-H23 = test system: NCI-H23
HOP-62 = test system: HOP-62
PC-3 = test system: PC-3
UACC-257 = test system: UACC-257
IGROV-1 = test system: IGROV-1
SF-539 = test system: SF-539
OVCAR-3 = test system: OVCAR-3
T47D = test system: T47D
OVCAR-5 = test system: OVCAR-5
UACC-62 = test system: UACC-62
BT-549 = test system: BT-549
A549 = test system: A549
SK-MEL-5 = test system: SK-MEL-5
ACHN = test system: ACHN
TK-10 = test system: TK-10
Malme-3M = test system: Malme-3M
SF-295 = test system: SF-295
MDA-N = test system: MDA-N
HCT-15 = test system: HCT-15
SN12C = test system: SN12C
EKVX = test system: EKVX
MCF7 = test system: MCF7
CAKI-1 = test system: CAKI-1
786-0 = test system: 786-0
RXF 393 = test system: RXF 393
SK-MEL-2 = test system: SK-MEL-2

OCC(CN1CCCCC1)(CN1CCCCC1)CN1CCCCC1
GI50 (COLO 205): > 100 µM (inactive)
GI50 (SK-OV-3): > 100 µM (inactive)
GI50 (NCI-H522): > 100 µM (inactive)
GI50 (U-251): > 100 µM (inactive)
GI50 (SW-620): > 100 µM (inactive)
GI50 (SK-MEL-28): > 100 µM (inactive)
GI50 (K562): > 100 µM (inactive)
GI50 (OVCAR-8): > 100 µM (inactive)
GI50 (UO-31): > 100 µM (inactive)
GI50 (KM12): > 100 µM (inactive)
GI50 (HCT-116): > 100 µM (inactive)
GI50 (HCC 2998): > 100 µM (inactive)
GI50 (M14): > 100 µM (inactive)
GI50 (MDA-MB-231): > 100 µM (inactive)
GI50 (OVCAR-4): > 100 µM (inactive)
GI50 (HOP-92): > 100 µM (inactive)
GI50 (CCRF-CEM): > 100 µM (inactive)
GI50 (NCI-H460): > 100 µM (inactive)
GI50 (LOX IMVI): > 100 µM (inactive)
GI50 (Hs-578T): > 100 µM (inactive)
GI50 (SNB-19): > 100 µM (inactive)
GI50 (SR): > 100 µM (inactive)
GI50 (MOLT-4): > 100 µM (inactive)
GI50 (SF-268): > 100 µM (inactive)
GI50 (NCI-H226): > 100 µM (inactive)
GI50 (MDA-MB-435): > 100 µM (inactive)
GI50 (NCI/ADR-RES): > 100 µM (inactive)
GI50 (DU-145): > 100 µM (inactive)
GI50 (HL-60): > 100 µM (inactive)
GI50 (HT-29): > 100 µM (inactive)
GI50 (A498): > 100 µM (inactive)
GI50 (NCI-H23): > 100 µM (inactive)
GI50 (HOP-62): > 100 µM (inactive)
GI50 (PC-3): > 100 µM (inactive)
GI50 (UACC-257): > 100 µM (inactive)
GI50 (IGROV-1): > 100 µM (inactive)
GI50 (SF-539): > 100 µM (inactive)
GI50 (OVCAR-3): > 100 µM (inactive)
GI50 (T47D): > 100 µM (inactive)
GI50 (OVCAR-5): > 100 µM (inactive)
GI50 (UACC-62): > 100 µM (inactive)
GI50 (BT-549): > 100 µM (inactive)
GI50 (A549): > 100 µM (inactive)
GI50 (SK-MEL-5): > 100 µM (inactive)
GI50 (ACHN): > 100 µM (inactive)
GI50 (TK-10): > 100 µM (inactive)
GI50 (Malme-3M): > 100 µM (inactive)
GI50 (SF-295): > 10 µM (inactive)
GI50 (MDA-N): > 100 µM (inactive)
GI50 (HCT-15): > 100 µM
GI50 (SN12C): > 100 µM (inactive)
GI50 (EKVX): > 100 µM (inactive)
GI50 (MCF7): > 100 µM (inactive)
GI50 (CAKI-1): > 100 µM (inactive)
GI50 (786-0): > 100 µM (inactive)
GI50 (RXF 393): > 100 µM (inactive)

COc1ccc2c(cnc3c4cc(OC)c(OC)cc4ccc23)c1
GI50 (COLO 205): > 100 µM (inactive)
GI50 (SK-OV-3): > 100 µM (inactive)
GI50 (NCI-H522): > 100 µM (inactive)
GI50 (U-251): > 100 µM (inactive)
GI50 (SW-620): > 100 µM (inactive)
GI50 (SK-MEL-28): > 100 µM (inactive)
GI50 (K562): > 100 µM (inactive)
GI50 (OVCAR-8): > 100 µM (inactive)
GI50 (UO-31): > 100 µM (inactive)
GI50 (KM12): > 100 µM (inactive)
GI50 (HCT-116): > 100 µM (inactive)
GI50 (HCC 2998): > 100 µM (inactive)
GI50 (M14): > 100 µM (inactive)
GI50 (MDA-MB-231): > 100 µM (inactive)
GI50 (OVCAR-4): > 100 µM (inactive)
GI50 (HOP-92): > 100 µM (inactive)
GI50 (CCRF-CEM): > 100 µM (inactive)
GI50 (NCI-H460): > 100 µM (inactive)
GI50 (LOX IMVI): > 100 µM (inactive)
GI50 (Hs-578T): > 100 µM (inactive)
GI50 (SNB-19): > 100 µM (inactive)
GI50 (SR): > 100 µM (inactive)
GI50 (MOLT-4): > 100 µM (inactive)
GI50 (SF-268): > 100 µM (inactive)
GI50 (NCI-H226): > 100 µM (inactive)
GI50 (MDA-MB-435): > 100 µM (inactive)
GI50 (NCI/ADR-RES): > 100 µM (inactive)
GI50 (DU-145): > 100 µM (inactive)
GI50 (HL-60): > 100 µM (inactive)
GI50 (HT-29): > 100 µM (inactive)
GI50 (A498): > 100 µM (inactive)
GI50 (NCI-H23): > 100 µM (inactive)
GI50 (HOP-62): > 100 µM (inactive)
GI50 (PC-3): > 100 µM (inactive)
GI50 (UACC-257): > 100 µM (inactive)
GI50 (IGROV-1): > 100 µM (inactive)
GI50 (SF-539): > 100 µM (inactive)
GI50 (OVCAR-3): > 100 µM (inactive)
GI50 (T47D): > 100 µM (inactive)
GI50 (OVCAR-5): > 100 µM (inactive)
GI50 (UACC-62): > 100 µM (inactive)
GI50 (BT-549): > 100 µM (inactive)
GI50 (A549): > 100 µM (inactive)
GI50 (SK-MEL-5): > 100 µM (inactive)
GI50 (ACHN): > 100 µM (inactive)
GI50 (TK-10): > 100 µM (inactive)
GI50 (Malme-3M): > 100 µM (inactive)
GI50 (SF-295): > 100 µM (inactive)
GI50 (MDA-N): > 100 µM (inactive)
GI50 (HCT-15): > 100 µM
GI50 (SN12C): > 100 µM (inactive)
GI50 (EKVX): > 100 µM (inactive)
GI50 (MCF7): > 100 µM (inactive)
GI50 (SK-MEL-2): > 100 µM (inactive)
GI50 (CAKI-1): > 100 µM (inactive)
GI50 (786-0): > 100 µM (inactive)
GI50 (RXF 393): > 100 µM (inactive)
